The text below walks through data of patent US8642601B2, “Inhibitors of JNK” (Roche Palo Alto LLC, priority 2010, dated 2014).

As a reminder, the melting point is the temperature, or range, at which the solid turns liquid. What is called IC50 is the point on the concentration scale where inhibition reaches its midpoint.

Data set [1] concerns T1, JNK.
T1 construct: Human JNK2α2 assay contains 1 nM enzyme; Human JNK1α1 assay contains 2 nM enzyme
The data set is described as follows: JNK Assay in vitro (phosphorylation of GST-ATF2 (19-96) with [γ-33P] ATP). In kind it is biochemical. As to conditions: JNK isoform not stated for Table 1 (method describes human JNK1α1, JNK2α2, JNK3); Km concentrations of ATP and substrate. The method, then: JNK activity was measured by phosphorylation of GST-ATF2 (19-96) with [γ-^33P] ATP. The enzyme reaction was conducted at Km concentrations of ATP and the substrate at final volume of 40 μl in buffer containing 25 mM HEPES, pH 7.5, 2 mM dithiothreitol, 150 mM NaCl, 20 mM MgCl2, 0.001% Tween® 20, 0.1% BSA and 10% DMSO. Human JNK2α2 assay contains 1 nM enzyme, 1 μM ATF2, 8 μM ATP with 1 uCi [γ-^33P] ATP. Human JNK1α1 assay contains 2 nM enzyme, 1 μM ATF2, 6 μM ATP with 1 μCi [γ-^33P] ATP. Human JNK3 (Upstate Biotech #14-501M) assay contains 2 nM enzyme, 1 μM ATF2, 4 μM ATP with 1 μCi [γ-^33P] ATP. The enzyme assay was carried out in the presence or absence of several compound concentrations. JNK and compound were pre-incubated for 10 min., followed by initiation of the enzymatic reaction by adding ATP and the substrate. The reaction mixture was incubated at 30° C. for 30 min. At the end of incubation, the reaction was terminated by transferring 25 μl of the reaction mixture to 150 μl of 10% glutathione Sepharose® slurry (Amersham #27-4574-01) containing 135 mM EDTA. The reaction product was captured on the affinity resin, and washed on a filtration plate (Millipore, MABVNOB50) with phosphate buffered saline for six times to remove free radionucleotide. The incorporation of ^33P into ATF2 was quantified on a microplate scintillation counter (Packard Topcount). Compound inhibition potency on JNK was measured by IC50 value generated from ten concentration inhibition curves fitted into the 3-parameter model: % inhibition=Maximum/(1+(IC50/[Inhibitor])^slope). Data were analyzed on Microsoft Excel for parameter estimation.

Counter-ions that a name gives are not always drawn.

`CCN1CCN(C(=O)[C@H]2CC[C@H](Nc3nccc(-n4ccc5c(OCC6CCS(=O)(=O)C6)cccc54)n3)CC2)C[C@@H]1C` (stereo partly drawn) (as salt: HCl) [Compound 9, (4-{4-[4-(1,1-Dioxo-tetrahydro-1λ^6-thiophen-3-ylmethoxy)-indol-1-yl]-pyrimidin-2-ylamino}-cyclohexyl)-((S)-4-ethyl-3-methyl-piperazin-1-yl)-methanone] registered a melting point of 198 to 204 °C.

The compound `CCCN1CC[C@@H](NC(=O)[C@H]2CC[C@H](Nc3nccc(-n4ccc5c(OCCCS(C)(=O)=O)cccc54)n3)CC2)C1` (as salt: HCl) [Compound 11, 4{4-[4-(3-Methanesulfonyl-propoxy)-indol-1-yl]-pyrimidin-2-ylamino}-cyclohexanecarboxylic acid ((R)-1-propyl-pyrrolidin-3-yl)-amide] came in with a melting point of 140 to 142 °C.

As to `CCN1CC[C@H](NC(=O)[C@H]2CC[C@H](Nc3nccc(-n4ccc5c(OCCCS(C)(=O)=O)cccc54)n3)CC2)C1` (as salt: HCl) [Compound 13, 4-{4-[4-(3-Methanesulfonyl-propoxy)-indol-1-yl]-pyrimidin-2-ylamino}-cyclohexanecarboxylic acid ((S)-1-ethyl-pyrrolidin-3-yl)-amide], the melting point fell in the range of 160 to 162 °C.

`CCN1CCC[C@@H](NC(=O)[C@H]2CC[C@H](Nc3nccc(-n4ccc5c(OCCCS(C)(=O)=O)cccc54)n3)CC2)C1` (as salt: HCl) [Compound 15, 4-{4-[4-(3-Methanesulfonyl-propoxy)-indol-1-yl]-pyrimidin-2-ylamino}-cyclohexanecarboxylic acid ((R)-1-ethyl-piperidin-3-yl)-amide] showed a melting point of 180 to 185 °C.

In turn, `C[C@@H]1CN(C(=O)[C@H]2CC[C@H](Nc3nccc(-n4ncc5c(OCCCS(C)(=O)=O)cccc54)n3)CC2)CCN1` (as salt: HCl) [Compound 24, (4-{4-[4-(3-Methanesulfonyl-propoxy)-indazol-1-yl]-pyrimidin-2-ylamino}-cyclohexyl)-((R)-3-methyl-piperazin-1-yl)-methanone] yielded a melting point of 245 to 250 °C.

Regarding `C[C@H]1CN(C(=O)[C@H]2CC[C@H](Nc3nccc(-n4ncc5c(OCC6CCS(=O)(=O)C6)cccc54)n3)CC2)CCN1` (stereo partly drawn) (as salt: HCl) [Compound 25, (4-{4-[4-(1,1-Dioxo-tetrahydro-1λ^6-thiophen-3-ylmethoxy)-indazol-1-yl]-pyrimidin-2-ylamino}-cyclohexyl)-((S)-3-methyl-piperazin-1-yl)-methanone], the melting point lay within 245 to 250 °C.

Take `CC1(C)CN(C(=O)[C@H]2CC[C@H](Nc3nccc(-n4ccc5c(OCC6CCS(=O)(=O)C6)cccc54)n3)CC2)CCN1` (stereo partly drawn) (as salt: HCl) [Compound 28, (3,3-Dimethyl-piperazin-1-yl)-(4-{4-[4-(1,1-dioxo-tetrahydro-1λ^6-thiophen-3-ylmethoxy)-indol-1-yl]-pyrimidin-2-ylamino}-cyclohexyl)-methanone]: the melting point was more than 300 °C.

`CCN1CCCC(NC(=O)[C@H]2CC[C@H](Nc3nccc(-n4ccc5c(OCC6CCS(=O)(=O)C6)cccc54)n3)CC2)C1` (stereo partly drawn) (as salt: HCl) [Compound 29, 4-{4-[4-(1,1-Dioxo-tetrahydro-1λ^6-thiophen-3-ylmethoxy)-indol-1-yl]-pyrimidin-2-ylamino}-cyclohexanecarboxylic acid (1-ethyl-piperidin-3-yl)-amide] gave a melting point of 205 to 210 °C.

`CCOC1CC2CCC(C1)N2C(=O)[C@H]1CC[C@H](Nc2nccc(-n3ccc4c(OCCCS(C)(=O)=O)cccc43)n2)CC1` (stereo partly drawn) (as salt: salt) [Compound 26, (3-Ethoxy-8-aza-bicyclo[3.2.1]oct-8-yl)-(4-{4-[4-(3-methanesulfonyl-propoxy)-indol-1-yl]-pyrimidin-2-ylamino}-cyclohexyl)-methanone; compound with formic acid] came in with a melting point of 125 to 130 °C.

Regarding `CCCN1CCC[C@H](NC(=O)[C@H]2CC[C@H](Nc3nccc(-n4ccc5c(OCCCS(C)(=O)=O)cccc54)n3)CC2)C1` (stereo in doubt) (as salt: HCl) [Compound 14, 4-{4-[4-(3-Methanesulfonyl-propoxy)-indol-1-yl]-pyrimidin-2-ylamino}-cyclohexanecarboxylic acid ((R)-1-propyl-piperidin-3-yl)-amide], the melting point fell in the range of 185 to 190 °C.

The compound `CCOC(=O)CC1CCN(C(=O)[C@H]2CC[C@H](Nc3nccc(-n4ccc5c(OCCCS(C)(=O)=O)cccc54)n3)CC2)CC1` [Compound 1, [1-(4-{4-[4-(3-Methanesulfonyl-propoxy)-indol-1-yl]-pyrimidin-2-ylamino}-cyclohexanecarbonyl)-piperidin-4-yl]-acetic acid ethyl ester] came in with a melting point of 175 to 177 °C. This compound registered an IC50 in data set [1] of 550 nM.

As for `CS(=O)(=O)CCCOc1cccc2c1ccn2-c1ccnc(N[C@H]2CC[C@H](C(=O)N3CCC[C@H](C(=O)O)C3)CC2)n1` [Compound 4, (S)-1-(4-{4-[4-(3-Methanesulfonyl-propoxy)-indol-1-yl]-pyrimidin-2-ylamino}-cyclohexanecarbonyl)-piperidine-3-carboxylic acid], the melting point was 270 to 276 °C. This compound also displayed an IC50 in data set [1] of 107 nM.

In turn, `CS(=O)(=O)CCCOc1cccc2c1ccn2-c1ccnc(N[C@H]2CC[C@H](C(=O)N3CCC(C(N)=O)CC3)CC2)n1` [Compound 5, 1-(4-{4-[4-(3-Methanesulfonyl-propoxy)-indol-1-yl]-pyrimidin-2-ylamino}-cyclohexanecarbonyl)-piperidine-4-carboxylic acid amide] displayed a melting point of 219 to 221 °C. The compound also gave an IC50 in data set [1] of 91.7 nM.

For the compound `CC(C)(O)C1CCN(C(=O)[C@H]2CC[C@H](Nc3nccc(-n4ccc5c(OCCCS(C)(=O)=O)cccc54)n3)CC2)CC1` [Compound 6, [4-(1-Hydroxy-1-methyl-ethyl)-piperidin-1-yl]-(4-{4-[4-(3-methanesulfonyl-propoxy)-indol-1-yl]-pyrimidin-2-ylamino}-cyclohexyl)-methanone], the melting point lay in the range of 196 to 198 °C. The IC50 in data set [1] stood at 86 nM.

Compound `CCOC(=O)C1CCN(C(=O)[C@H]2CC[C@H](Nc3nccc(-n4ccc5c(OCC6CCS(=O)(=O)C6)cccc54)n3)CC2)CC1` (stereo partly drawn) [Compound 7, 1-(4-{4-[4-(1,1-Dioxo-tetrahydro-1λ^6-thiophen-3-ylmethoxy)-indol-1-yl]-pyrimidin-2-ylamino}-cyclohexanecarbonyl)-piperidine-4-carboxylic acid ethyl ester] returned a melting point of 209 to 211 °C. This compound also returned an IC50 in data set [1] of 51.4 nM.

As to `O=C(O)C1CCN(C(=O)[C@H]2CC[C@H](Nc3nccc(-n4ccc5c(OCC6CCS(=O)(=O)C6)cccc54)n3)CC2)CC1` (stereo partly drawn) [Compound 8, 1-(4-{4-[4-(1,1-Dioxo-tetrahydro-1λ^6-thiophen-3-ylmethoxy)-indol-1-yl]-pyrimidin-2-ylamino}-cyclohexanecarbonyl)-piperidine-4-carboxylic acid], the melting point is 172 to 174 °C. For the same compound, the IC50 in data set [1] stood at 70.8 nM.

As to `CCOC(=O)C1(C)CCN(C(=O)[C@H]2CC[C@H](Nc3nccc(-n4ccc5c(OCCCS(C)(=O)=O)cccc54)n3)CC2)CC1` [Compound 10, 1-(4-{4-[4-(3-Methanesulfonyl-propoxy)-indol-1-yl]-pyrimidin-2-ylamino}-cyclohexanecarbonyl)-4-methyl-piperidine-4-carboxylic acid ethyl ester], the melting point lay within 171 to 173 °C. Moreover, the IC50 in data set [1] is 58.4 nM.

With `CCN1CC[C@@H](NC(=O)[C@H]2CC[C@H](Nc3nccc(-n4ccc5c(OCCCS(C)(=O)=O)cccc54)n3)CC2)C1` [Compound 12, 4-{4-[4-(3-Methanesulfonyl-propoxy)-indol-1-yl]-pyrimidin-2-ylamino}-cyclohexanecarboxylic acid ((R)-1-ethyl-pyrrolidin-3-yl)-amide], the melting point is 229 to 231 °C. Besides, half-maximal inhibition in data set [1] (IC50) required 93.8 nM.

Turning to `CCCN1CCC[C@@H](NC(=O)[C@H]2CC[C@H](Nc3nccc(-n4ccc5c(OCCCS(C)(=O)=O)cccc54)n3)CC2)C1` [Compound 16, 4-{4-[4-(3-Methanesuflonyl-propoxy)-indol-1-yl]-pyrimidin-2-ylamino}-cyclohexanecarboxylic acid ((S)-1-propyl-piperidin-3-yl)-amide], the melting point is 185 to 190 °C. The IC50 in data set [1] was 163 nM.

Turning to `CC1(C(=O)O)CCN(C(=O)[C@H]2CC[C@H](Nc3nccc(-n4ccc5c(OCCCS(C)(=O)=O)cccc54)n3)CC2)CC1` [Compound 18, 1-(4-{4-[4-(3-Methanesulfonyl-propoxy)-indol-1-yl]-pyrimidin-2-ylamino}-cyclohexanecarbonyl)-4-methyl-piperidine-4-carboxylic acid], the melting point was found to be 174 °C. Besides, the IC50 in data set [1] is 153 nM.
